The subject of one data set is DENV-2 16681 strain. As to the kind of experiment: DENV-2 antiviral assay (eGFP fluorescence, Vero cells). It counts as cell-based, Dengue virus. The settings on record: DENV-2 16681 eGFP, MOI 0.5, 3 days. Here is the method:
The antiviral activity of all the compounds of the invention was tested against the DENV-2 16681 strain which was labeled with enhanced green fluorescent protein (eGPF; Table 1). The culture medium consists of minimal essential medium supplemented with 2% of heat-inactivated fetal calf serum, 0.04% gentamycin (50 mg/mL) and 2 mM of L-glutamine. Vero cells, obtained from ECACC, were suspended in culture medium and 25 μL was added to 384-well plates (2500 cells/well), which already contain the antiviral compounds. Typically, these plates contain a 5-fold serial dilution of 9 dilution steps of the test compound at 200 times the final concentration in 100% DMSO (200 nL). […] Finally, each plate contains wells which are assigned as virus controls (containing cells and virus in the absence of compound), cell controls (containing cells in the absence of virus and compound) and medium controls (containing medium in the absence of cells, virus and compounds). To the wells assigned as medium control, 25 μL of culture medium was added instead of Vero cells. Once the cells were added to the plates, the plates were incubated for 30 minutes at room temperature to allow the cells to distribute evenly within the wells. Next, the plates were incubated in a fully humidified incubator (37° C., 5% CO2) until the next day. Then, DENV-2 strain 16681, labeled with eGFP, was added at a multiplicity of infection (MOI) of 0.5. Therefore, 15 μL of virus suspension was added to all the wells containing test compound and to the wells assigned as virus control. In parallel, 15 μL of culture medium was added to the medium and cell controls. Next, the plates were incubated for 3 days in a fully humidified incubator (37° C., 5% CO2). At the day of the read out, the eGFP fluorescence was measured using an automated fluorescence microscope at 488 nm (blue laser). Using an in-house LIMS system, inhibition dose response curves for each compound were calculated and the half maximal effective concentration (EC50) was determined. Therefore, the percent inhibition (I) for every test concentration is calculated using the following formula: I=100*(ST−SCC)/(SVC−SCC); ST, SCC and SVC are the amount of eGFP signal in the test compound, cell control and virus control wells, respectively. The EC50 represents the concentration of a compound at which the virus replication is inhibited with 50%, as measured by a 50% reduction of the eGFP fluorescent intensity compared to the virus control. The EC50 is calculated using linear interpolation.

The test system of a further data set is Vero cells. The settings on record: African green monkey.

The structures appear in SMILES notation.

What is called EC50 is the concentration at which the effect is half-maximal. The term CC50 denotes the concentration giving 50% cytotoxicity.

As for `COc1cc(NC(C(=O)c2c[nH]c3ccc(OC(F)(F)F)cc23)c2ccc(Cl)cc2OC)cc(S(C)(=O)=O)c1` (single isomer, unassigned) [Compound 9B, 2-(4-chloro-2-methoxyphenyl)-2-((3-methoxy-5-(methyl-sulfonyl)phenyl)amino)-1-(5-(trifluoromethoxy)-1H-indol-3-yl)ethanone], in the data set on DENV-2 16681 strain, the response was half-maximal at 0.0038 µM (EC50). The midpoint of cytotoxicity in the data set with Vero cells, the CC50, lay at 6.2 µM.

In the data set on DENV-2 16681 strain, `COc1cc(NC(C(=O)c2c[nH]c3cc(F)c(C)cc23)c2ccc(Cl)cc2OC)cc(S(C)(=O)=O)c1` (single isomer, unassigned) [Compound 7A, 2-(4-chloro-2-methoxyphenyl)-1-(6-fluoro-5-methyl-1H-indol-3-yl)-2-((3-methoxy-5-(methylsulfonyl)phenyl)amino)ethanone] had an EC50 of 0.013 µM. In addition, the CC50 with Vero cells is 6.8 µM.

Regarding `COc1cc(NC(C(=O)c2c[nH]c3cc(OC)ccc23)c2ccc(Cl)cc2OC)cc(S(C)(=O)=O)c1` (single isomer, unassigned) [Compound 3B, 2-(4-chloro-2-methoxyphenyl)-1-(6-methoxy-1H-indol-3-yl)-2-((3-methoxy-5-(methylsulfonyl)phenyl)amino)ethanone], in the data set with DENV-2 16681 strain, it took 0.0038 µM to reach a half-maximal effect (EC50). The compound also gave a 50% cytotoxic concentration (CC50) in the data set on Vero cells greater than 9.7 µM.

Regarding `COc1cc(NC(C(=O)c2c[nH]c3c(C)cc(OC(F)(F)F)cc23)c2ccc(Cl)cc2OC)cc(S(C)(=O)=O)c1` (single isomer, unassigned) [Compound 11B, 2-(4-chloro-2-methoxyphenyl)-2-((3-methoxy-5-(methylsulfonyl)phenyl)amino)-1-(7-methyl-5-(trifluoromethoxy)-1H-indol-3-yl)ethanone], the concentration for a half-maximal effect (EC50) with DENV-2 16681 strain was determined as 0.0041 µM. Further, in the data set with Vero cells, the CC50 stood at 9.2 µM.

`COc1cc(NC(C(=O)c2c[nH]c3c(C)c(OC)ccc23)c2ccc(Cl)cc2OC)cc(S(C)(=O)=O)c1` (single isomer, unassigned) [Compound 6B, 2-(4-chloro-2-methoxyphenyl)-2-((3-methoxy-5-(methyl-sulfonyl)phenyl)amino)-1-(6-methoxy-7-methyl-1H-indol-3-yl)ethanone] had an EC50 in the data set with DENV-2 16681 strain of 0.019 µM. In the data set with Vero cells, the CC50 worked out at 11 µM.

With `COc1cc(NC(C(=O)c2c[nH]c3cc(OC)c(C)cc23)c2ccc(Cl)cc2OC)cc(S(C)(=O)=O)c1` (single isomer, unassigned) [Compound 4B, 2-(4-chloro-2-methoxyphenyl)-2-((3-methoxy-5-(methyl-sulfonyl)phenyl)amino)-1-(6-methoxy-5-methyl-1H-indol-3-yl)ethanone], the EC50 in the data set on DENV-2 16681 strain was found to be 0.036 µM. For the same compound, the midpoint of cytotoxicity with Vero cells, the CC50, lay at 12 µM.

`COc1cc(NC(C(=O)c2c[nH]c3c(C)c(F)ccc23)c2ccc(Cl)cc2OC)cc(S(C)(=O)=O)c1` (single isomer, unassigned) [Compound 2B, 2-(4-chloro-2-methoxyphenyl)-1-(6-fluoro-7-methyl-1H-indol-3-yl)-2-((3-methoxy-5-(methylsulfonyl)phenyl)amino)ethanone] showed a concentration for a half-maximal effect (EC50) with DENV-2 16681 strain of 0.026 µM. This compound displayed a cytotoxic concentration (CC50) in the data set with Vero cells of 7.4 µM.

For `COc1cc(NC(C(=O)c2c[nH]c3ccc(C(F)(F)F)cc23)c2ccc(Cl)cc2OC)cc(S(C)(=O)=O)c1` (single isomer, unassigned) [Compound 8A, 2-(4-chloro-2-methoxyphenyl)-2-((3-methoxy-5-(methyl-sulfonyl)phenyl)amino)-1-(5-(trifluoromethyl)-1H-indol-3-yl)ethanone], a half-maximal effect in the data set with DENV-2 16681 strain (EC50) was put at 0.003 µM. The compound further came in with a half-maximal cytotoxic concentration (CC50) in the data set with Vero cells of 7.4 µM.

`COc1cc(NC(C(=O)c2c[nH]c3cc(OC)c(F)cc23)c2ccc(Cl)cc2OC)cc(S(C)(=O)=O)c1` (single isomer, unassigned) [Compound 5B, 2-(4-chloro-2-methoxyphenyl)-1-(5-fluoro-6-methoxy-1H-indol-3-yl)-2-((3-methoxy-5-(methylsulfonyl)phenyl)amino)ethanone] yielded an EC50 with DENV-2 16681 strain of 0.068 µM. Also, the midpoint of cytotoxicity in the data set with Vero cells, the CC50, lay at 13 µM.

`COc1cc(NC(C(=O)c2c[nH]c3cc(F)ccc23)c2ccc(Cl)cc2OC)cc(S(C)(=O)=O)c1` (single isomer, unassigned) [Compound 1B, 2-(4-chloro-2-methoxyphenyl)-1-(6-fluoro-1H-indol-3-yl)-2-((3-methoxy-5-(methylsulfonyl)phenyl)amino)ethanone]: a half-maximal effect in the data set on DENV-2 16681 strain (EC50) was put at 0.012 µM. The midpoint of cytotoxicity in the data set on Vero cells, the CC50, lay at 6.5 µM.

In the data set on DENV-2 16681 strain (Dengue virus, DENV2, Vero, 72 h), `COc1cc(NC(C(=O)c2c[nH]c3cc(F)ccc23)c2ccc(Cl)cc2OC)cc(S(C)(=O)=O)c1` (racemic) [Compound 1, 2-(4-chloro-2-methoxyphenyl)-1-(6-fluoro-1H-indol-3-yl)-2-((3-methoxy-5-(methylsulfonyl)phenyl)amino)ethanone] came in with a concentration for a half-maximal effect (EC50) of 0.00052 µM. The CC50 in the data set with Vero cells stood at 5.5 µM.

In the data set on DENV-2 16681 strain, `COc1cc(NC(C(=O)c2c[nH]c3cc(OC)c(OC(F)(F)F)cc23)c2ccc(Cl)cc2OC)cc(S(C)(=O)=O)c1` (single isomer, unassigned) [Compound 10B, 2-(4-chloro-2-methoxyphenyl)-2-((3-methoxy-5-(methylsulfonyl)phenyl)amino)-1-(6-methoxy-5-(trifluoromethoxy)-1H-indol-3-yl)ethanone] had an EC50 of 0.0039 µM. The CC50 in the data set on Vero cells is 9.8 µM.

The record behind these values is patent US12172959B2, “Mono- or di-substituted indole derivatives as dengue viral replication inhibitors” (priority 2015, dated 2024).
